# Data taken from patent US20180179166A1, “SMALL MOLECULE INHIBITORS OF GP120-MEDIATED HIV INFECTION AND METHODS OF USE” (ViroCarb Inc., priority 2014, published 2018).
# Target: R5 gp120 (Human immunodeficiency virus type 1 group M subtype B, UniProt P35961)
# Settings: CD4/CCR5 transfected U87 cells; 20 μg/mL gp120; western blot
# Experimental: Cell bound R5 gp120 was detected by western blot. […] Lanes 1: cells alone; Cells treated with 2: 20 μg/mL gp120; 3: 20 μg/mL gp120+20 μM adaGb Gb3; 4: 20 μg/mL gp120+50 μM ada Gb3; 5: 20 μg/mL gp120+150 μM ada Gb3; 6: 20 μg/mL gp120+5 μg/mL solCD4; 7: 20 μg/mL gp120+5 μg/mL solCD4+20 μM ada Gb3; 8: 20 μg/mL gp120+5 μg/mL solCD4+50 μM ada Gb3; 9: 20 μg/mL gp120+5 μg/mL solCD4+150 μM ada Gb3; 10: 20 μg/mL gp120+50 μM.
structure (smiles),measurement,value
CCCCCCCCCCCCC/C=C/[C@@H](O)[C@H](CO[C@@H]1O[C@H](CO)[C@@H](O[C@@H]2O[C@H](CO)[C@H](O[C@H]3O[C@H](CO)[C@H](O)[C@H](O)[C@H]3O)[C@H](O)[C@H]2O)[C@H](O)[C@H]1O)NC(=O)CC12CC3CC(CC(C3)C1)C2 [AdamantylGb3],binding of R5 gp120 to CCR5 of cells after pretreatment of gp120,reduces its binding to CCR5 of cells
